For data set [1], the system named is BALB/c mice. The experiment in a line: In vivo delivery of ovalbumin mRNA (OVA mRNA) and immunity, IgG antibody titer by ELISA. Particulars: OVA mRNA LNPs 0.5 mg/kg Day 0 and Day 7, serum Day 21, versus DLin-MC3 control, FIG. 1. As to the method: The amino lipid compound of the invention was mixed with DOPE, cholesterol and PEG2000-DMG in a molar ratio of 50:10:38.5:1.5 and dissolved in absolute ethanol such that the molar concentration of the amino lipid compound was 0.001-0.01 mmol/L. Ovalbumin mRNA (OVA mRNA, TriLink) was dissolved in sodium acetate solution (50 mM, pH=4.0). By using a microinjection pump, the resultant ethanol solution and sodium acetate solution (50 mM, pH=4.0) were mixed in a volume ratio of 1:3 in a microchannel chip to prepare a crude solution of lipid nanoparticles, which was then dialyzed in 1×PBS at a controlled temperature of 4° C. for 6 h using a dialysis box (Fisher, MWCO 20,000), and filtered through a 0.22 μm microporous filter membrane before use. The mass ratio of the amino lipid compound to ovalbumin mRNA (OVA mRNA) was about 10:1.
(§1) Animal Preparation: 6-week aged female BALB/c mice weighed about 20 g were selected and fed in a SPF-grade feeding room. Animal tests were conducted strictly according to the guidelines of national health institutions and the requirements of animal ethics.
In vivo delivery: 3 mice were assigned randomly to each group, and the lipid nanoparticle solution was intramuscularly injected into the leg at a dosage of 0.5 mg/kg mRNA (Day 0). After 7 days, one booster injection was performed at the same dosage (Day 7). On Day 21, blood was taken from the tail vein for serological analysis. DLin-MC3 was used as control (FIG. 1).
Enzyme-linked immunosorbent assay (ELISA): a flat-bottomed 96-well plate (Nunc) was pre-coated, with a concentration of OVA protein of 0.5 μg protein per well in 50 mM carbonate buffer (pH 9.6), and was allowed to stay overnight at 4° C. and then blocked with 5% glycine. Serum obtained from animals receiving the lipid nanoparticle solution containing the mRNA was diluted from 10^2 to 10^6 times with PBS-0.05% Tween (PBS-T) at pH 7.4, and added to the wells, incubated at room temperature and placed at 37° C. for 1 h. Horseradish peroxidase (HRP, Invitrogen) coupled goat anti-mouse IgG was used for labeling in PBS-T-1% BSA at a dilution rate of 1:10,000. After addition of the HRP substrate, the absorbance at 450 nm was measured in ELISA microplate reader (Bio-Rad).
A general note: An ELISA detects its analyte on a solid surface through an enzyme-linked reagent.

Data set [2] in a line: Encapsulation rate of LNP RNA (Qubit RNA HS Assay kit). It is filed as physicochemical. The following applies: LNPs. On the procedure: (§2) The amino lipid compound of the invention was mixed with DOPE, cholesterol and PEG2000-DMG in a molar ratio of 45:10:42.5:2.5, and dissolved in absolute ethanol such that the molar concentration of the amino lipid compound was 0.001-0.01 mmol/L. By using a microinjection pump, the resultant ethanol solution and a sodium acetate solution (50 mM, pH=4.0) in which luciferase mRNA (Fluc mRNA, TriLink) was dissolved were mixed in a volume ratio of 1:3 in a microchannel chip to prepare a crude solution of lipid nanoparticles, which was then dialyzed in 1×PBS at a controlled temperature of 4° C. for 6 h using a dialysis box (Fisher, MWCO 20,000) and filtered through a 0.22 μm microporous filter membrane before use. The mass ratio of the amino lipid compound to Fluc mRNA was about 10:1. The resultant solution of lipid nanoparticles (LNPs) was administered to the tested animals by subcutaneous administration.
Detection of encapsulation rate: the concentration of LNP RNA was detected by Qubit® RNA HS Assay kit. The theoretical RNA concentration was given by the total amount of RNA input divided by the total volume of the final solution.
(§3) The preparation method was the same as Formulation method 1, except that amino lipid compound, DSPC, cholesterol and PEG2000-DMG were used in a molar ratio of 50:10:38.5: 1.5. The resultant solution of lipid nanoparticles (LNPs) was administered to the tested animals by tail vein and intramuscular injection.

Data set [3] concerns BALB/c mice. The experiment in a line: In vivo delivery of luciferase mRNA (Fluc mRNA) by lipid nanoparticles, in vivo imaging. The following applies: 0.5 mg/kg Fluc mRNA, after 12 hours. On the procedure:
as §2, §3, §1
In vivo delivery: 9 mice were assigned randomly to each group, and the lipid nanoparticle solution was injected by three routes of administration, i.e., subcutaneous, intramuscular and tail vein injection at a dosage of 0.5 mg/kg Fluc mRNA (3 mice for each route of administration). After 12 hours, 200 μL of 10 mg/mL potassium salt of […] (PerkinElmer) was injected into each mouse through the tail vein. After 10 min, the mice were placed under an in vivo imaging system (IVIS-200, Xenogen) to observe the total fluorescence intensity of each mouse and take photographs for record. The expression intensity of Fluc mRNA delivered by representative amino lipid compounds through the three routes of administration are shown in Table 5-7. DLin-MC3 was used as control.

Data set [4] in a line: Particle size and PDI of lipid nanoparticles (Nano-ZSZEN3600, Malvern). It is filed as physicochemical. Particulars: LNPs; for Particle size (nm): Fluc mRNA. On the procedure: as §2
Characterization of particle size: the particle size and PDI of the prepared lipid nanoparticles were determined by Nano-ZSZEN3600 (Malvern). 40 uL of LNP solution was taken for particle size measurement with circulation for three times, 30 s for each circulation.
as §3

Setting [5] is: Formulation Method 1 (amino lipid:DOPE:cholesterol:PEG2000-DMG 45:10:42.5:2.5).
Where [6] appears, read: Formulation method 2 (amino lipid:DSPC:cholesterol:PEG2000-DMG 50:10:38.5:1.5).

Take `CCCCCCCCCCCCCCCCCCSc1nc(NCCN2CCCC2)nc(SCCCCCCC)n1` [Compound S7S18D3]: the IgG antibody titer entry in data set [1] is listed as “significantly superior to that of the control”. Besides, the values for the Encapsulation rate in data set [2] (Formulation Method 1) and in data set [2] (Formulation method 2) were 99.5% and 99.3%, respectively. Also, the figures for the “Fluorescence intensity (expression intensity of Fluc mRNA)” value (“Fluorescence intensity” below) in data set [3] (intramuscular administration), in data set [3] (subcutaneous administration) and in data set [3] (tail vein administration) were 8.7E+07, 2.9E+08 and 8.1E+07, respectively. For the same molecule, the PDI in data set [4] (Formulation Method 1) is reported as 0.10; in data set [4] (Formulation method 2) it was 0.04. Further, the “Particle size (nm)” value in data set [4] (setting [5]) came out at 121 ± 5 nm; in data set [4] (setting [6]), 95 ± 5 nm.

On to `CCCCCCCCCCCCCCCCSc1nc(NCCCCCCC)nc(NCCCN2CCN(C)CC2)n1` [Compound S16N7D9], for which the IgG antibody titer result in data set [1] is recorded as “significantly superior to that of the control”. Also, the figures for the Encapsulation rate in data set [2] (Formulation Method 1) and in data set [2] (Formulation method 2) were 98.6% and 99.2%, respectively. The figures for the “Fluorescence intensity” value in data set [3] (intramuscular administration), in data set [3] (subcutaneous administration) and in data set [3] (tail vein administration) were 4.3E+07, 1.4E+07 and 5.1E+07, respectively. The values for the PDI in data set [4] (Formulation Method 1) and in data set [4] (Formulation method 2) were 0.01 and 0.05, respectively. Also, the “Particle size (nm)” value in data set [4] (setting [5]) is 102 ± 5 nm; in data set [4] (setting [6]) it was 92 ± 5 nm.

With `CCCCCCCC/C=C\CCCCCCCCSc1nc(OCCN2CCCC2)nc(SCCCCCCCCC)n1` [Compound S19S9O8], the IgG antibody titer result in data set [1] is listed as “significantly superior to that of the control”. The figures for the Encapsulation rate in data set [2] (Formulation Method 1) and in data set [2] (Formulation method 2) were 99.6% and 99.2%, respectively. In addition, the “Fluorescence intensity” value in data set [3] (intramuscular administration) was found to be 9.1E+07; in data set [3] (subcutaneous administration), 1.1E+07; in data set [3] (tail vein administration) it was 1.1E+08. The PDI in data set [4] (Formulation Method 1) came to 0.02; in data set [4] (Formulation method 2), 0.03. The “Particle size (nm)” value in data set [4] (setting [5]) and in data set [4] (setting [6]) was 88 ± 5 nm throughout.

`CCCCCCCC/C=C\CCCCCCCCSc1nc(OCC2CCN(C)CC2)nc(SCCCCCCCCC)n1` [Compound S19S9O9]: in data set [1], the IgG antibody titer result was “significantly superior to that of the control”. Besides, the Encapsulation rate in data set [2] (Formulation Method 1) is 99.2%; in data set [2] (Formulation method 2) it was 99.0%. In addition, the “Fluorescence intensity” value in data set [3] (intramuscular administration) is recorded as 1.8E+07; in data set [3] (subcutaneous administration) it was 2.8E+07; in data set [3] (tail vein administration), 3.1E+07. The results for the PDI in data set [4] (Formulation Method 1) and in data set [4] (Formulation method 2) were 0.04 and 0.05, respectively. The “Particle size (nm)” value in data set [4] (setting [5]) and in data set [4] (setting [6]) was 110 ± 5 nm throughout.

Source of the values: US20230123334A1, “AMINO LIPID COMPOUND, PREPARATION METHOD THEREFOR, AND APPLICATION THEREOF” (SHENZHEN SHENXIN BIOTECHNOLOGY CO., LTD., priority 2020, published 2023).
